Measurements: the supplement of paper PMC8617591

Assays:
[1] = system: Mycobacterium tuberculosis Erdman (autoluminescent); assay: total FIC50 (Loewe) at 50% inhibition, three-drug combination (log2); higher = more antagonistic
Procedure: (§1)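 DiaMOND equipotent three-drug combination dose responses (10 doses, 1.5- or 2-fold spacing, centred on IC90) against autoluminescent M. tuberculosis Erdman in 8 in vitro models. Read-out is OD600, or luminescence for the intracellular and dormancy models, normalised to untreated wells. Hill-fit Einf, AUC25 and GRinf are potency metrics; FIC50 and FIC90 are total Loewe fractional inhibitory concentrations as log2 (negative = synergy).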

[2] = system: Mycobacterium tuberculosis Erdman (autoluminescent); assay: total FIC90 (Loewe) at 90% inhibition, three-drug combination (log2); higher = more antagonistic
Procedure: as §1

[3] = system: Mycobacterium tuberculosis Erdman (autoluminescent); assay: AUC25, normalised area under dose response up to IC25 (three-drug combination) (fraction (0-1)); higher = more potent at low dose
Procedure: as §1

[4] = system: Mycobacterium tuberculosis Erdman (autoluminescent); assay: Einf, fitted maximum growth inhibition of three-drug combination (fraction); higher = stronger maximal inhibition
Procedure: as §1

[5] = system: Mycobacterium tuberculosis Erdman (autoluminescent); assay: GRinf, maximum normalised growth rate inhibition (three-drug combination) (unitless (-1 to 1)); higher = less effect (negative = killing)
Procedure: as §1

CC[C@@H](CO)NCCN[C@@H](CC)CO [ethambutol] + CC(=O)NC[C@H]1CN(c2ccc(N3CCOCC3)c(F)c2)C(=O)O1 [linezolid] + CO[C@H]1/C=C/O[C@@]2(C)Oc3c(C)c(O)c4c(O)c(c(/C=N/N5CCN(C)CC5)c(O)c4c3C2=O)NC(=O)/C(C)=C\C=C\[C@H](C)[C@H](O)[C@@H](C)[C@@H](O)[C@@H](C)[C@H](OC(C)=O)[C@@H]1C [rifampicin]
Settings | AUC25, [3] | Einf, [4] | GRinf, [5] | total FIC50, [1] | total FIC90, [2]
in vitro model: acidic pH 5.7, time point: constant (~7 days, model-specific) | 0.107 | 0.895 | -0.171 | 0.267 | –
in vitro model: acidic pH 5.7, time point: terminal (~4-5 doublings, model-specific) | 0.0468 | 0.972 | -0.121 | 0.894 | 0.219
in vitro model: intracellular J774, time point: constant = terminal | – | 0.96 | -0.326 | – | -2.16

Settings | AUC25, [3] | Einf, [4] | GRinf, [5] | total FIC50, [1] | total FIC90, [2]
in vitro model: butyrate, time point: constant (~7 days, model-specific) | 0.0696 | 0.907 | 0.0409 | 0.215 | –
in vitro model: butyrate, time point: terminal (~4-5 doublings, model-specific) | 0.0538 | 0.952 | 0.0366 | 0.088 | -0.801
in vitro model: cholesterol 0.05 mM, time point: constant (~7 days, model-specific) | 0.163 | 0.704 | -0.271 | -0.838 | –
in vitro model: cholesterol 0.05 mM, time point: terminal (~4-5 doublings, model-specific) | 0.142 | 0.945 | -0.414 | -1.2 | –
in vitro model: cholesterol-high 0.2 mM, time point: constant (~7 days, model-specific) | 0.0878 | 0.971 | -0.549 | 0.326 | –
in vitro model: cholesterol-high 0.2 mM, time point: terminal (~4-5 doublings, model-specific) | 0.0943 | 1 | -0.743 | 0.388 | 0.577
in vitro model: dormancy (butyrate + nitrate, low O2), time point: constant (~7 days, model-specific) | 0.086 | 0.805 | 0.521 | 0.204 | –
in vitro model: dormancy (butyrate + nitrate, low O2), time point: terminal (~4-5 doublings, model-specific) | 0.0341 | 0.979 | -0.0529 | 0.514 | -0.712
in vitro model: standard 7H9 glycerol, time point: constant = terminal | 0.0613 | 0.9 | 0.107 | 0.293 | –
in vitro model: valerate, time point: constant (~7 days, model-specific) | 0.0592 | 0.858 | 0.0331 | 0.437 | –
in vitro model: valerate, time point: terminal (~4-5 doublings, model-specific) | 0.0352 | 0.921 | 0.0654 | 0.622 | -0.279
